System: Vaccinia virus
Test: Antiviral activity against Vaccinia virus infected in HEL cells assessed as protection from virus-induced cytopathogenicity after 2 to 3 days by MTT assay
Type: functional, organism-based
Settings: Orthopoxvirus vaccinia

SMILES	EC50 [nM]
COc1cc(/C=C/C(=O)CC(=O)/C=C/c2ccc(OC(=O)CCC(NC(=O)c3ccc(NCc4cnc5nc(N)[nH]c(=O)c5n4)cc3)C(=O)O)c(OC)c2)ccc1OC(=O)CCC(NC(=O)c1ccc(NCc2cnc3nc(N)[nH]c(=O)c3n2)cc1)C(=O)O (stereo not drawn)	> 82
CCCCCCCCCC(=O)Oc1ccc(/C=C/C(=O)CC(=O)/C=C/c2ccc(OC(=O)CCCCCCCCC)c(OC)c2)cc1OC	> 147
COc1cc(/C=C/C(=O)CC(=O)/C=C/c2ccc(OC(=O)[C@H](Cc3ccccc3)NC(=O)[C@@H](N)Cc3c[nH]c4ccccc34)c(OC)c2)ccc1OC(=O)[C@H](Cc1ccccc1)NC(=O)[C@@H](N)Cc1c[nH]c2ccccc12	> 38
COc1cc(/C=C/C(=O)C(CCOC(=O)CCC(NC(=O)c2ccc(NCc3cnc4nc(N)[nH]c(=O)c4n3)cc2)C(=O)O)C(=O)/C=C/c2ccc(O)c(OC)c2)ccc1O (stereo not drawn)	> 11
COc1cc(/C=C/C(=O)CC(=O)/C=C/c2ccc(OCCOC(=O)CCC(NC(=O)c3ccc(NCc4cnc5nc(N)[nH]c(=O)c5n4)cc3)C(=O)O)c(OC)c2)ccc1O (stereo not drawn)	> 119
O=c1[nH]c(=O)n([C@H]2C[C@H](O)[C@@H](CO)O2)cc1/C=C/Br [BRIVUDINE]	2000
Nc1nc2c(ncn2COC(CO)CO)c(=O)[nH]1 [GANCICLOVIR]	> 100000
NC(=O)c1ncn([C@@H]2O[C@H](CO)[C@@H](O)[C@H]2O)n1 [RIBAVIRIN]	85000

— ChEMBL document CHEMBL1154855 (Eur J Med Chem, 2010)
